According to PMC6104039 (Nature Communications, 2018):
Values joined by “and” are separate entries in the source; they are usually repeats but may differ in a detail not shown here. Equal entries are not always repeated.

Test system: HEK293 cells
Assay: Endogenous ceramide, HexCer and SM levels in cells treated 24 h, targeted LC-MS/MS
Assay type: cell-based
Conditions: HEK293 cells, 24 h
Method: Lipids were then extracted using MTBE/methanol/water as described above.
HEK293 cell culture experiment: Levels of each lipid in P053-treated HEK293 cells were normalised to the mean of the vehicle control group, and each concentration was compared to the control using ANOVA with Dunnett’s post-test. P values were adjusted for multiple comparisons in GraphPad PRISM.
Supplementary Figure 1. Ceramide, SM, and HexCer levels in HEK293 cells treated with
P053. Absolute lipid levels were determined by targeted LC-MS/MS, relative to external
standard curves. Results are mean ± SEM (n = 4) from one of two identical experiments.
Statistically significant results, based on two independent experiments, are as indicated in
Figure 2b-d. Raw data for these figures is provided in Supplementary Data File 1.

Structure (SMILES): C[C@@](N)(CO)CCc1ccc(OCc2ccc(Cl)c(Cl)c2)cc1 [P053, (S)-2-amino-4-(4-(3,4-dichlorobenzyloxy)phenyl)-2-methylbutan-1-ol]
- 24:1 SM level (P053 10 nM): 96.7947 percentage of the vehicle control group and 98.2864 percentage of the vehicle control group and 81.9082 percentage of the vehicle control group and 117.227 percentage of the vehicle control group and 113.319 percentage of the vehicle control group and 103.033 percentage of the vehicle control group and 103.816 percentage of the vehicle control group and 97.9548 percentage of the vehicle control group
- 14:0 SM level (P053 30 nM): 116.988 percentage of the vehicle control group and 111.4 percentage of the vehicle control group and 100.814 percentage of the vehicle control group and 94.1513 percentage of the vehicle control group and 120.651 percentage of the vehicle control group and 105.592 percentage of the vehicle control group and 111.904 percentage of the vehicle control group and 100.551 percentage of the vehicle control group
- 16:0 Cer level (P053 30 nM): 114.03 percentage of the vehicle control group and 105.56 percentage of the vehicle control group and 86.7073 percentage of the vehicle control group and 95.6011 percentage of the vehicle control group and 106.761 percentage of the vehicle control group and 98.8726 percentage of the vehicle control group and 108.159 percentage of the vehicle control group and 97.2516 percentage of the vehicle control group
- 16:0 HexCer level (P053 30 nM): 79.9911 percentage of the vehicle control group and 81.3101 percentage of the vehicle control group and 74.3038 percentage of the vehicle control group and 88.8289 percentage of the vehicle control group and 99.9863 percentage of the vehicle control group and 95.9283 percentage of the vehicle control group and 102.652 percentage of the vehicle control group and 109.256 percentage of the vehicle control group
- 16:0 SM level (P053 30 nM): 101.805 percentage of the vehicle control group and 101.307 percentage of the vehicle control group and 94.9476 percentage of the vehicle control group and 93.9555 percentage of the vehicle control group and 110.566 percentage of the vehicle control group and 97.2802 percentage of the vehicle control group and 102.981 percentage of the vehicle control group and 97.8958 percentage of the vehicle control group
- 16:1 SM level (P053 30 nM): 104.561 percentage of the vehicle control group and 101.096 percentage of the vehicle control group and 98.3763 percentage of the vehicle control group and 109.464 percentage of the vehicle control group and 104.292 percentage of the vehicle control group and 104.01 percentage of the vehicle control group and 101.515 percentage of the vehicle control group
- 18:0 Cer level (P053 30 nM): 72.2013 percentage of the vehicle control group and 69.2543 percentage of the vehicle control group and 56.626 percentage of the vehicle control group and 64.3691 percentage of the vehicle control group and 82.5432 percentage of the vehicle control group and 84.0607 percentage of the vehicle control group and 83.9582 percentage of the vehicle control group and 71.3957 percentage of the vehicle control group
- 18:0 HexCer level (P053 30 nM): 55.7883 percentage of the vehicle control group and 64.0009 percentage of the vehicle control group and 45.6733 percentage of the vehicle control group and 59.2017 percentage of the vehicle control group and 57.5393 percentage of the vehicle control group and 74.8051 percentage of the vehicle control group and 77.6074 percentage of the vehicle control group
- 18:0 SM level (P053 30 nM): 73.8483 percentage of the vehicle control group and 78.6872 percentage of the vehicle control group and 83.1913 percentage of the vehicle control group and 75.9206 percentage of the vehicle control group and 97.6949 percentage of the vehicle control group and 87.2321 percentage of the vehicle control group and 89.1916 percentage of the vehicle control group and 74.9956 percentage of the vehicle control group
- 18:1 SM level (P053 30 nM): 87.9585 percentage of the vehicle control group and 73.1683 percentage of the vehicle control group and 79.2449 percentage of the vehicle control group and 71.4358 percentage of the vehicle control group and 96.5941 percentage of the vehicle control group and 87.3865 percentage of the vehicle control group and 81.7473 percentage of the vehicle control group and 78.1368 percentage of the vehicle control group
- 20:0 Cer level (P053 30 nM): 62.7306 percentage of the vehicle control group and 109.856 percentage of the vehicle control group and 118.09 percentage of the vehicle control group and 96.2985 percentage of the vehicle control group and 100.9 percentage of the vehicle control group and 105.057 percentage of the vehicle control group and 91.6087 percentage of the vehicle control group
- 22:0 Cer level (P053 30 nM): 116.044 percentage of the vehicle control group and 99.7524 percentage of the vehicle control group and 91.9349 percentage of the vehicle control group and 88.0267 percentage of the vehicle control group and 116.852 percentage of the vehicle control group and 103.772 percentage of the vehicle control group and 120.038 percentage of the vehicle control group and 118.899 percentage of the vehicle control group
- 22:0 HexCer level (P053 30 nM): 90.0465 percentage of the vehicle control group and 79.6776 percentage of the vehicle control group and 76.0982 percentage of the vehicle control group and 95.044 percentage of the vehicle control group and 107.866 percentage of the vehicle control group and 100.167 percentage of the vehicle control group and 123.322 percentage of the vehicle control group and 116.268 percentage of the vehicle control group
- 22:0 SM level (P053 30 nM): 128.14 percentage of the vehicle control group and 90.1111 percentage of the vehicle control group and 110.345 percentage of the vehicle control group and 114.556 percentage of the vehicle control group and 123.558 percentage of the vehicle control group and 116.784 percentage of the vehicle control group and 129.764 percentage of the vehicle control group and 100.326 percentage of the vehicle control group
- 22:1 SM level (P053 30 nM): 99.3902 percentage of the vehicle control group and 113.946 percentage of the vehicle control group and 108.27 percentage of the vehicle control group and 113.134 percentage of the vehicle control group and 107.671 percentage of the vehicle control group and 100.443 percentage of the vehicle control group and 99.5068 percentage of the vehicle control group and 95.4079 percentage of the vehicle control group
- 24:0 HexCer level (P053 30 nM): 96.4804 percentage of the vehicle control group and 86.7028 percentage of the vehicle control group and 84.7209 percentage of the vehicle control group and 91.5325 percentage of the vehicle control group and 104.127 percentage of the vehicle control group and 98.7325 percentage of the vehicle control group and 129.497 percentage of the vehicle control group and 115.717 percentage of the vehicle control group
- 24:0 SM level (P053 30 nM): 114.636 percentage of the vehicle control group and 105.214 percentage of the vehicle control group and 97.3725 percentage of the vehicle control group and 90.2877 percentage of the vehicle control group and 117.867 percentage of the vehicle control group and 114.443 percentage of the vehicle control group and 132.815 percentage of the vehicle control group and 128.722 percentage of the vehicle control group
- 24:1 Cer level (P053 30 nM): 117.491 percentage of the vehicle control group and 102.844 percentage of the vehicle control group and 87.9247 percentage of the vehicle control group and 98.6487 percentage of the vehicle control group and 120.911 percentage of the vehicle control group and 109.977 percentage of the vehicle control group and 130.805 percentage of the vehicle control group and 124.062 percentage of the vehicle control group
- 24:1 HexCer level (P053 30 nM): 93.843 percentage of the vehicle control group and 87.9781 percentage of the vehicle control group and 89.6469 percentage of the vehicle control group and 99.7739 percentage of the vehicle control group and 102.587 percentage of the vehicle control group and 104.249 percentage of the vehicle control group and 119.244 percentage of the vehicle control group and 107.968 percentage of the vehicle control group
- 24:1 SM level (P053 30 nM): 102.826 percentage of the vehicle control group and 100.942 percentage of the vehicle control group and 98.397 percentage of the vehicle control group and 94.2567 percentage of the vehicle control group and 116.83 percentage of the vehicle control group and 103.091 percentage of the vehicle control group and 120.071 percentage of the vehicle control group and 112.514 percentage of the vehicle control group
- 14:0 SM level (P053 100 nM): 112.517 percentage of the vehicle control group and 90.2734 percentage of the vehicle control group and 104.152 percentage of the vehicle control group and 104.709 percentage of the vehicle control group and 117.225 percentage of the vehicle control group and 115.891 percentage of the vehicle control group and 108.424 percentage of the vehicle control group and 118.856 percentage of the vehicle control group
